Results published in EP1382341A1, “Use of compositions comprising glycyrrhetinic acid and benzoyl peroxide for acne treatment” (Cognis Iberia, S.L., priority 2002, dated 2004).
In brackets after ≈: the same amount, converted by molar mass. Where two headings read alike, the source gives them in different places.

Key:
Format in all cases: cell-based
[1] = system: Staphylococcus epidermidis; test: Agar dilution method (MIC determination); conditions: lowest concentration with complete inhibition of growth, 37 °C, 18 to 24 h, mean of duplicate determinations
Excerpt: (§1) Die antibakterielle Wirksamkeit der Wirkstoffe und Wirkstoffinischungen wurde mit Hilfe der Diffusionsmethode auf Agar-Platten bzw. der Agar-Verdünnungsmethode untersucht. Dabei wird zunächst ein rundes Filterpapier definierten Durchmessers mit der Testlösung getränkt und dieses dann auf die Oberfläche einer Agarplatte aufgebracht, welche zuvor mit den Testmikroorganismen inokuliert worden war. Anschließend wird nach definierten Zeiten die Größe der Inhibierungszonen bestimmt. Diese Technik erlaubt es insbesondere die MIC (Minimum Inhibitory Concentration) als die niedrigste Testsubstanzkonzentration zu bestimmen, mit der noch eine vollständige Inhibierung der Mikroorganismen erzielt werden kann.
(§2) Agar Verdünnungsmethode (MIC-Bestimmung). Wie oben beschrieben wurden verschiedene Agars vorbereitet, mit unterschiedlichen Konzentrationen an Testsubstanzen versetzt, homogenisiert und dann getrocknet. Anschließend erfolgte die Inokulation der Petrischalen mit jeweils 2 µl der Bakteriensuspensionen. […] Es handelt sich jeweils um den Mittelwert von Doppelbestimmungen.

Propionibacterium acnes [2] = test: Agar dilution method (MIC determination); conditions: lowest concentration with complete inhibition of growth, 37 °C, 18 to 24 h, mean of duplicate determinations
Excerpt: as §1, §2

Staphylococcus aureus [3] = test: Agar dilution method (MIC determination); conditions: lowest concentration with complete inhibition of growth, 37 °C, 18 to 24 h, mean of duplicate determinations
Excerpt: as §1, §2

[4] = system: Staphylococcus epidermidis; test: Agar diffusion method (inhibition zones); conditions: diameter of inhibition zone; Mueller-Hinton agar; filter paper with 20 µl test substance; 18 to 24 at 37 °C
Excerpt: as §1
(§3) Agar-Diffusionsmethode. Das Inokulum wurde unter Verwendung einer frischen Kultur in einer stationären Wachstumsphase (nach ca. 18-24 h) in einer BHI-Lösung (Brain-Heart-InfüsionI) hergestellt. Die Bakteriensuspension wurde auf 0,5 MacFarland-Einheiten eingestellt, entsprechend 1,5 10^8 Kolonienbildende Einheiten (cfu)/ml; anschließend wurde die Suspension mit einer Kochsalzlösung 1/100 verdünnt, um einen Wert von 1,5 10^6 cfu/ml einzustellen. Anschließend wurde Mueller-Hinton Agar (Staphylococcus epidermis, Staphylococcus aureus) und Wilkins-Chalgrens Agar mit 5 Gew.-% Schafsblut (Propionobakterium acnes) 15 min bei 121 °C sterilisiert und dann in Petrischalen gegeben. Die Petrischalen wurden mit 2 bis 4 ml der Bakteriensuspensionen versetzt und bei Raumtemperatur getrocknet. Die Filterpapiere wurden mit 20 µl der Testsubstanzen getränkt und auf die Oberfläche der Agarplatten aufgebracht. Die inokulierten Petrischalen wurden 18 bis 24 bei 37 °C inkubiert (die Petrischalen mit Propionibacterium acnes unter anaeroben Bedingungen) und die antimikrobielle Wirksamkeit anschließend durch Bestimmung der Wachstumsinhibierungszone ermittelt. Die Ergebnisse sind in Tabelle 1 zusammengefasst. Angegeben sind ist jeweils der Durchmesser der Inhibierungsflächen in mm.

Propionibacterium acnes [5] = test: Agar diffusion method (inhibition zones); conditions: diameter of inhibition zone; Wilkins-Chalgren agar with 5 wt% sheep blood; 20 µl test substance; 18 to 24 at 37 °C, anaerobic
Excerpt: as §1, §3

Staphylococcus aureus [6] = test: Agar diffusion method (inhibition zones); conditions: diameter of inhibition zone; Mueller-Hinton agar; filter paper with 20 µl test substance; 18 to 24 at 37 °C
Excerpt: as §1, §3

Row | MIC ([1]; Staphylococcus epidermidis, read-out: MIC) [µg/mL] | MIC (Propionibacterium acnes [2]; Cutibacterium acnes, read-out: MIC) [µg/mL] | MIC (Staphylococcus aureus [3]; Staphylococcus aureus, read-out: MIC) [µg/mL] | Compound | MIC [1] | MIC (Propionibacterium acnes [2]) | MIC (Staphylococcus aureus [3]) [µg/mL] | Inhibierungszonen [4] [mm] | Inhibierungszonen (Propionibacterium acnes [5]) [mm] | Inhibierungszonen (Staphylococcus aureus [6]) [mm]
1 | – | – | – | Glyzyrrhetinsäure-Zinksalz [B1] | 1,25 mg/ml | 1,25 mg/ml | >10000 | 5 | 4 | 5
2 | 1250 (≈ 5.16 mM) | 1250 (≈ 5.16 mM) | > 10000 | O=C(OOC(=O)c1ccccc1)c1ccccc1 [A1, Benzoylperoxid] | – | – | – | 5 | 7 | 5
